Measured values from patent US11253589B2, “Modulation of the immune response” (priority 2007, dated 2022).
Entries after “also recorded” stand apart in the source; their conditions may differ.

Experiments:
CD4+Foxp3:GFP+ Treg = assay: Treg suppressive activity assay; format: cell-based, mouse
Experimental: (§1) Cells were cultured in serum-free X-VIVO 20™ media (BioWhittaker, Walkersville, Md., USA) for 72 hours. During the last 16 hours, cells were pulsed with 1 μCi of [^3H]thymidine (PerkinElmer, Waltham, Mass., USA) followed by harvesting on glass fiber filters and analysis of incorporated [^3H]thymidine in a beta-counter (1450 Microbeta, Trilux, PerkinElmer). Alternatively, culture supernatants were collected […] activation and the cytokine concentration was determined by ELISA using antibodies for IFN-γ, IL-17, IL-4, IL-10 from BD Biosciences and antibodies to TGF-β from R&D Systems. For suppression assays, MACS purified CD4^+CD25^− T cells from naïve C57BL/6 mice (1-5×10^4 cells/well) were stimulated with antibodies to CD3 and C57BL/6 irradiated spleen cells (0.3-1.5×10^4 cells/well) for 3 days in the presence of different ratios of CD4^+ GFP^+ retrovirus-transduced T cells.
To investigate the active suppression of MOG35-55-specific Teff by Treg, Foxp3^gpf knock in mice were immunized with MOG35-55/CFA, treated daily with intreaperitoneal ITE ([…]) and the recall response to MOG35-55 and a mitogenic antibody to CD3 antibody was studied on FACS-sorted CD4^+ T cells and CD4^+ FoxP3:GFP− Teff. […] This suppressed response to MOG35-55 was lost upon removal of the CD4^+FoxP3:GFP^+ Treg (FIG. 26). To further analyze the MOG35-55-specific suppressive activity of the CD4^+FoxP3:GFP^+ Treg, they were cocultured at different ratios and assayed for the suppression of MOG35-55 or anti-CD3-triggered proliferation of CD4^+FoxP3:GFP− Teff form 2D2 mice, which harbor a TCR specific for MOG35-55.

myelin specific T cells = assay: Recall response (proliferation, cytokine secretion) to MOG35-55 or anti-CD3 of cells from treated mice; format: in vivo, mouse
Experimental: as §1
To further characterize the suppression of EAE by AHR activation we studied the activity of myelin specific T cells induced by vaccination with MOG35-55/CFA in TCDD-treated mice.
(§2) In addition, cells were stimulated in culture medium containing 100 μg/ml MOG35-55 for 2 days or with PMA (50 ng/ml) (Sigma-Aldrich) and ionomycin ([…]) (Calbiochem, San Diego, Calif., USA) for 4 hours, Golgistop (BD Biosciences) was added to the culture during the last 4 hours. After staining of surface markers, cells were fixed and permeabilized using Cytofix/Cytoperm and Perm/Wash buffer from BD Biosciences according to the manufacturer's instructions. All antibodies to cytokines (IFN-gamma, IL-17, IL-10) including the corresponding isotype controls were obtained from BD Biosciences. Cells were incubated (1:100) at 25° C. for 20 min and washed twice in Perm/Wash before analysis. Data were acquired on a FACSCalibur (BD Biosciences) and analyzed with FlowJo software (Tree Star, Ashland, Oreg., USA).
We then studied the effect of ITE administration on the encephalitogenic response against myelin. EAE was induced on naïve C57BL/6 mice and ITE ([…]) was administered orally or intraperitoneally on daily basis.

[1] = tested on: CD4+IL-17+ and CD4+IFNg+ T cells; assay: Frequency of CD4+IL-17+ and CD4+IFNg+ T cells by FACS; format: in vivo, mouse
Experimental: as §2
To confirm the suppressive effects of AHR activation on the generation of T cells secreting IFNg and IL17, IFNg^+ and IL17^+ CD4^+ T cells were quantified by FACS in the draining lymph nodes ten days after footpad immunization and intraperitoneal administration of ITE ([…]).

AHR = molecular target: T1, AHR (Homo sapiens, UniProt P35869); conditions: cited from earlier work
T1 sequence (P35869 11-848): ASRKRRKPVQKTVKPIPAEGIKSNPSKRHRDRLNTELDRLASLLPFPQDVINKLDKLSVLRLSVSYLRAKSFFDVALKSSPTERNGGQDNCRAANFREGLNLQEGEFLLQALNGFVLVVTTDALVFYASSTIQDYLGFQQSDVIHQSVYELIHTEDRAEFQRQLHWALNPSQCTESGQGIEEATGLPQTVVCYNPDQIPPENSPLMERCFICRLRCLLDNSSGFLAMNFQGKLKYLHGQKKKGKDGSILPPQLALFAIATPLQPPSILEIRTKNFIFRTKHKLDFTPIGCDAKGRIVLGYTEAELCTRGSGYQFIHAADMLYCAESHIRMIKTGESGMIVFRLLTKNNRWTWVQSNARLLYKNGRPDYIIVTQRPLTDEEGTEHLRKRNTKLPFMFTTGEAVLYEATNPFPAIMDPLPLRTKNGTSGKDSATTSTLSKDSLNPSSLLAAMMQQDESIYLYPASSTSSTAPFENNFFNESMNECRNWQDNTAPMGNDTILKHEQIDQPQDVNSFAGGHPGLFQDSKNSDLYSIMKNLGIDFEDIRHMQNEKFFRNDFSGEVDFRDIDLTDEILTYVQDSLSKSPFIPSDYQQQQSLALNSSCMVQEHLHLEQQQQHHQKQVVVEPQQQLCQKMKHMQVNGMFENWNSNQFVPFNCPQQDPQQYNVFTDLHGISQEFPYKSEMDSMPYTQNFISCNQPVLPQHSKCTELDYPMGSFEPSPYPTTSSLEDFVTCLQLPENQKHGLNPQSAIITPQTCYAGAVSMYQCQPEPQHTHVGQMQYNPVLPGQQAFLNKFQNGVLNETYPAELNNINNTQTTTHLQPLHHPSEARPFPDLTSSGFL

[2] = CD4+ T cells from ITE-treated mice vs control
[3] = ITE 200 mg/mice daily (FIG. 22: IP), splenocytes
[4] = ITE 200 mg/mice intraperitoneal, draining lymph nodes ten days after footpad immunization
[5] = cells purified from TCDD-treated Foxp3gfp mice
[6] = draining lymph node cells of TCDD-treated mice vs control
[7] = lymph node cells of TCDD-treated mice, 10 days after MOG35-55/CFA
[8] = draining lymph nodes of TCDD-treated mice

## COC(=O)c1csc(C(=O)c2c[nH]c3ccccc23)n1 [ITE, 2-(1′H-indole-3′-carbonyl)-thiazole-4-carboxylic acid methyl ester]
CD4+Foxp3:GFP+ Treg; Treg from ITE-treated mice, 2D2 Teff as responders
  MOG35-55-specific suppressive activity of CD4+ FoxP3:GFP+ Treg: increased MOG35-55-specific suppressive activity
Myelin specific T cells; [2]
  IFNg secretion upon activation with MOG35-55: lower amounts
  IL2 secretion upon activation with MOG35-55: lower amounts
  IL6 secretion upon activation with MOG35-55: lower amounts
  IL17 secretion upon activation with MOG35-55: lower amounts
  IL-10 secretion upon activation with MOG35-55: higher amounts
  TGFb1 secretion upon activation with MOG35-55: higher amounts
Myelin specific T cells; Foxp3gfp mice, ITE 200 mg/mice intraperitoneal daily
  recall response of purified CD4+ T cells: suppressed response to MOG35-55 but not to anti-CD3
Myelin specific T cells; [3]
  proliferative response upon activation with antibodies to CD3: no differences were seen
  recall proliferative response to the MOG35-55 peptide: suppressed recall proliferative response
Myelin specific T cells; ITE-treated mice
  secretion of IFNg by lymph node cells activated with MOG35-55 or αCD3: significant reduction in the secretion
  secretion of IL-17 by lymph node cells activated with MOG35-55 or αCD3: significant reduction in the secretion
[1]; [4]
  frequency of CD4+IFNg+ T cells: decrease in the frequency
  frequency of CD4+IL17+ T cells: decrease in the frequency
AHR
  AHR affinity: high affinity AHR ligands

## Clc1cc2c(cc1Cl)Oc1cc(Cl)c(Cl)cc1O2 [TCDD, 2,3,7,8 tetrachlorodibenzo-p-dioxin]
CD4+Foxp3:GFP+ Treg; Treg expanded in vivo by TCDD administration and MOG35-55 immunization
  MOG35-55-specific suppressive activity of CD4+Foxp3:GFP+ T cells: increased MOG35-55-specific suppressive activity
CD4+Foxp3:GFP+ Treg; stimulation with antibodies to CD3 and CD28 and TCDD
  proliferation and suppressive activity of CD4+Foxp3:GFP+ Treg purified from naïve mice: did not proliferate and did not show increased suppressive activity
Myelin specific T cells; [5]
  proliferation of effector CD4+ Foxp3:GFP- T cells to MOG35-55: normal proliferation
  secretion of IFNγ by effector CD4+ Foxp3:GFP- T cells upon activation with MOG35-55: significantly decreased secretion
  secretion of IL-17 by effector CD4+ Foxp3:GFP- T cells upon activation with MOG35-55: significantly decreased secretion
Myelin specific T cells; [6]
  IFNg secretion upon activation with MOG35-55: lower amounts
  IL-17 secretion upon activation with MOG35-55: lower amounts
  TGFb1 secretion upon activation with MOG35-55: higher amounts
Myelin specific T cells; [7]
  proliferative response upon activation with antibodies to CD3: no differences were seen
  recall proliferative response to the MOG35-55 peptide: suppressed recall proliferative response
[1]; [8]
  frequency of CD4+IFNg+ T cells: decrease in the frequency
  frequency of CD4+IL-17 T cells: decrease in the frequency
[1]; natural Treg depleted with antibodies to CD25 prior to TCDD treatment, day 18
  IL-17+CD4+ T cells in the draining lymph nodes: significant reduction; also recorded: significant decrease in the frequency
AHR
  AHR affinity: high affinity AHR ligand
